In patent publication US5620958A, “Bradykinin antagonists” (Coretech, Inc., priority 1994, dated 1997):
Where two headings read alike, the source gives them in different places. Peptide text beside a SMILES is read from it.

Key:
[1] = molecular target: T1, BK2 receptor (Cavia porcellus, UniProt O70526); experiment: guinea-pig ileum (GPI) in vitro, antagonism of BK; format: cell-based; details: Table E
T1 construct: tested for activity on guinea pig ileum in vitro on the standard tissue bath/strain gauge system; from tissue; host or cells: guinea pig ileum
T1 sequence (O70526 1-372): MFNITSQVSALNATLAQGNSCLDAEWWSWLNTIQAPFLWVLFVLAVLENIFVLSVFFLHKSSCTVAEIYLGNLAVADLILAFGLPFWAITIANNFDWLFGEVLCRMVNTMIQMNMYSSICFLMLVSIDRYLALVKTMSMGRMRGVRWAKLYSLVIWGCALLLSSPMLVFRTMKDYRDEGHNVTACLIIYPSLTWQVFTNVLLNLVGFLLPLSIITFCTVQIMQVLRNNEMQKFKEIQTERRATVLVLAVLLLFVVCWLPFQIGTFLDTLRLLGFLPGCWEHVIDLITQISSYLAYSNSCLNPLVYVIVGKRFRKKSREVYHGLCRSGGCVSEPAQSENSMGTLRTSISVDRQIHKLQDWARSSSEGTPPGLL
How it was run: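 Isolated guinea-pig ileum in tissue bath with strain-gauge recording; antagonism of bradykinin contractions. Potency expressed as pA2 (Schild method: negative log molar antagonist concentration causing two-fold agonist potency shift); percentage recovery also determined.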

[2] = molecular target: T2, BK1 receptor (Oryctolagus cuniculus, UniProt P48748); experiment: rabbit aorta in vitro, reversal of des-Arg^9 -BK contraction; format: cell-based
T2 construct: when administered to an intact animal; from tissue; host or cells: whole rabbit (systemic arterial blood pressure), LPS-pretreated
T2 sequence (P48748 1-352): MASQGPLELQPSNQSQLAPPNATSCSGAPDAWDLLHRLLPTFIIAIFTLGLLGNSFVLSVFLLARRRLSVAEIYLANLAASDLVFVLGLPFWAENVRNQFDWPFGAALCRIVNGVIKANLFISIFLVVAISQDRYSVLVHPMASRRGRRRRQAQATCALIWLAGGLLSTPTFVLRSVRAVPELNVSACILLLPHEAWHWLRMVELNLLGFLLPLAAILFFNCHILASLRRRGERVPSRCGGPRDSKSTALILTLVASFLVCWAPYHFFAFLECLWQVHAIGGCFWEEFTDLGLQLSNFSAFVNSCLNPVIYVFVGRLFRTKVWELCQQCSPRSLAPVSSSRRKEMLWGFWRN

[3] = molecular target: T3, BK2 receptor (Rattus norvegicus, UniProt P25023)
T3 sequence (P25023 1-396): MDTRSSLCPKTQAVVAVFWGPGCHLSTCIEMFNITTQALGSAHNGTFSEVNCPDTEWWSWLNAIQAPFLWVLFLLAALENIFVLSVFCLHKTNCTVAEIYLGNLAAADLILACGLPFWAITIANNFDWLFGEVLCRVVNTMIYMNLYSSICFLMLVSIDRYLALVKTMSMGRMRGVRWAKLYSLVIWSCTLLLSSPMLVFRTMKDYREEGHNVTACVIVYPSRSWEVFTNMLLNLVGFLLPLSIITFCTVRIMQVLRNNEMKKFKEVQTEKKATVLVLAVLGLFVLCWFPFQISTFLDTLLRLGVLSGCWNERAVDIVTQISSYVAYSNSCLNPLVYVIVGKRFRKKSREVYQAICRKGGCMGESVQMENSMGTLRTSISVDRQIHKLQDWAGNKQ

[4] = molecular target: T3, BK2 receptor; experiment: cell-based
[5] = molecular target: T4, NK2 receptor (Oryctolagus cuniculus, UniProt P79218); experiment: rabbit pulmonary artery, reduction of neurokinin A contraction; format: cell-based; details: Table R; negative log of molar concentration reducing sustained neurokinin A contraction by 50%; read-out: NK2 Rabbit Pulm Art log (converted)
T4 construct: reduce a sustained contractile response produced by neurokinin A by 50%; from tissue; host or cells: contractile tissue preparation (rabbit pulmonary artery per the earlier reading)
T4 sequence (P79218 1-384): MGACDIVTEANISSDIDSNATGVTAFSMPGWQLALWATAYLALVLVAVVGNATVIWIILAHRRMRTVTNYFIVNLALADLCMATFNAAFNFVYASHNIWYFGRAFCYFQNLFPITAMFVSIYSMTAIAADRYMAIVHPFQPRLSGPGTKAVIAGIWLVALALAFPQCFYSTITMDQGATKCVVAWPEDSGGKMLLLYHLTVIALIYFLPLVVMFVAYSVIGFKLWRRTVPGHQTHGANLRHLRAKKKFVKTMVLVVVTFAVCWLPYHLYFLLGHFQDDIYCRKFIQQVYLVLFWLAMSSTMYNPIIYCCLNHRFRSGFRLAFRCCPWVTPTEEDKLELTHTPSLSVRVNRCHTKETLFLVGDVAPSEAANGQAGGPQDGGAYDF
Procedure: The heterodimers thus obtained were tested for activity as heretofore described, the results being shown in Table R. In this Table -log [M] represents the negative log of the molar concentration of the antagonist necessary to reduce a sustained contractile response produced by neurokinin A by 50%.

CC(C)C[C@H](NC(=O)[C@@H](Cc1ccccc1)NC(=O)[C@H](CSC1CC(=O)N(CCCCCCN2C(=O)CC(SC[C@H](NC(=O)[C@H](Cc3ccccc3)NC(=O)CNC(=O)[C@@H]3C[C@@H](O)CN3C(=O)[C@@H]3CCCN3C(=O)[C@H](CCCNC(=N)N)NC(=O)[C@H](N)CCCNC(=N)N)C(=O)N[C@H](Cc3ccccc3)C(=O)N[C@@H](CC(C)C)C(=O)N[C@@H](CCCNC(=N)N)C(=O)O)C2=O)C1=O)NC(=O)[C@H](Cc1ccccc1)NC(=O)CNC(=O)[C@@H]1C[C@@H](O)CN1C(=O)[C@@H]1CCCN1C(=O)[C@H](CCCNC(=N)N)NC(=O)[C@H](N)CCCNC(=N)N)C(=O)N[C@@H](CCCNC(=N)N)C(=O)O (some centres unmarked) [CP-0127] (HELM PEPTIDE1{[dR].R.P.[Hyp].G.F.C.[dF].L.R}|PEPTIDE2{[dR].R.P.[Hyp].G.F.C.[dF].L.R}|CHEM1{[O=C1CC([*:1])C(=O)N1CCCCCCN1C(=O)CC([*:2])C1=O]}$PEPTIDE1,CHEM1,7:R3-1:R1|PEPTIDE2,CHEM1,7:R3-1:R2$$$V2.0)
GPI pA2 [1]: 7.7 ± 0.2 | BK1 RABBIT AORTA IC50 ([2]; Table G, negative log of molar concentration causing 50% reversal of 10^-7 M des-Arg^9 -BK contraction): Inactive | pA2 DIMER ([3]; Table C, rat uterus, P.A. = partial antagonist): 8.8 ± 0.3 | Kb ([4]; BK2 RAT UTERUS pA2, Table G): 3.16 nM | Kb ([4]; pA2 (UTERUS), Table D, effect of linker length): 1.58 nM

CC(C)C[C@H](NC(=O)[C@@H](Cc1ccccc1)NC(=O)[C@H](CSC1CC(=O)N(CCCCCCN2C(=O)CC(SC[C@H](N)C(=O)N[C@@H](Cc3ccc(O)cc3)C(=O)N[C@H](Cc3c[nH]c4ccccc34)C(=O)N[C@H](C(=O)N[C@H](Cc3c[nH]c4ccccc34)C(=O)N[C@H](Cc3c[nH]c4ccccc34)C(=O)N[C@@H](CCCNC(=N)N)C(N)=O)C(C)C)C2=O)C1=O)NC(=O)[C@H](Cc1ccccc1)NC(=O)CNC(=O)[C@@H]1C[C@@H](O)CN1C(=O)[C@@H]1CCCN1C(=O)[C@H](CCCNC(=N)N)NC(=O)[C@H](N)CCCNC(=N)N)C(=O)N[C@@H](CCCNC(=N)N)C(=O)O (some centres unmarked) [CP-0411] (HELM PEPTIDE1{[dR].R.P.[Hyp].G.F.C.[dF].L.R}|PEPTIDE2{C.Y.[dW].V.[dW].[dW].R.[am]}|CHEM1{[O=C1CC([*:1])C(=O)N1CCCCCCN1C(=O)CC([*:2])C1=O]}$PEPTIDE1,CHEM1,7:R3-1:R1|PEPTIDE2,CHEM1,1:R3-1:R2$$$V2.0; N-terminus assumed)
IC50 [5]: 3160 nM | Kb [4]: 31.6 nM

CC(C)C[C@H](NC(=O)[C@@H](Cc1ccccc1)NC(=O)[C@H](CSC1CC(=O)N(CCCCCCN2C(=O)CC(SC[C@H](NC(=O)[C@@H](Cc3c[nH]c4ccccc34)NC(=O)[C@H](Cc3ccc(O)cc3)NC(=O)[C@@H](N)CC(=O)O)C(=O)N[C@H](Cc3c[nH]c4ccccc34)C(=O)N[C@H](Cc3c[nH]c4ccccc34)C(=O)N[C@@H](CCCNC(=N)N)C(N)=O)C2=O)C1=O)NC(=O)[C@H](Cc1ccccc1)NC(=O)CNC(=O)[C@@H]1C[C@@H](O)CN1C(=O)[C@@H]1CCCN1C(=O)[C@H](CCCNC(=N)N)NC(=O)[C@H](N)CCCNC(=N)N)C(=O)N[C@@H](CCCNC(=N)N)C(=O)O (some centres unmarked) [CP-0414] (HELM PEPTIDE1{[dR].R.P.[Hyp].G.F.C.[dF].L.R}|PEPTIDE2{D.Y.[dW].C.[dW].[dW].R.[am]}|CHEM1{[O=C1CC([*:1])C(=O)N1CCCCCCN1C(=O)CC([*:2])C1=O]}$PEPTIDE1,CHEM1,7:R3-1:R1|PEPTIDE2,CHEM1,4:R3-1:R2$$$V2.0; N-terminus assumed)
IC50 [5]: 6310 nM | Kb [4]: 15.8 nM

CC(C)C[C@H](NC(=O)[C@@H]1CCCN1C(=O)[C@H](CO)NC(=O)[C@H](Cc1ccccc1)NC(=O)CNC(=O)[C@@H]1C[C@@H](O)CN1C(=O)[C@@H]1CCCN1C(=O)[C@H](CSC1CC(=O)N(CCCCCCN2C(=O)CC(SC[C@H](NC(=O)[C@H](Cc3ccccc3)NC(=O)CNC(=O)[C@@H]3C[C@@H](O)CN3C(=O)[C@@H]3CCCN3C(=O)[C@H](CCCNC(=N)N)NC(=O)[C@H](N)CCCNC(=N)N)C(=O)N[C@H](Cc3ccccc3)C(=O)N[C@@H](CC(C)C)C(=O)N[C@@H](CCCNC(=N)N)C(=O)O)C2=O)C1=O)NC(=O)[C@@H](N)CCCCN)C(=O)O (some centres unmarked) [CP-0382] (HELM PEPTIDE1{[dR].R.P.[Hyp].G.F.C.[dF].L.R}|PEPTIDE2{K.C.P.[Hyp].G.F.S.P.L}|CHEM1{[O=C1CC([*:1])C(=O)N1CCCCCCN1C(=O)CC([*:2])C1=O]}$PEPTIDE1,CHEM1,7:R3-1:R1|PEPTIDE2,CHEM1,2:R3-1:R2$$$V2.0; N-terminus and C-terminus assumed)
BK1 antagonism [2]: BK1 antagonism was retained | IC50 ([2]; Table L, negative log of molar concentration): 631 nM | activity in the rat uterus BK2 receptor system [3]: substantial partial agonism | BK2 Rat Uterus pA2 ([3]; Table L): Agonist

CC(C)C[C@H](NC(=O)[C@@H](Cc1ccccc1)NC(=O)[C@H](CSC1CC(=O)N(CCCCCCN2C(=O)CC(SC[C@H](NC(=O)[C@@H](NC(=O)[C@@H](Cc3c[nH]c4ccccc34)NC(=O)[C@H](Cc3ccc(O)cc3)NC(=O)[C@@H](N)CC(=O)O)C(C)C)C(=O)N[C@H](Cc3c[nH]c4ccccc34)C(=O)N[C@@H](CCCNC(=N)N)C(N)=O)C2=O)C1=O)NC(=O)[C@H](Cc1ccccc1)NC(=O)CNC(=O)[C@@H]1C[C@@H](O)CN1C(=O)[C@@H]1CCCN1C(=O)[C@H](CCCNC(=N)N)NC(=O)[C@H](N)CCCNC(=N)N)C(=O)N[C@@H](CCCNC(=N)N)C(=O)O (some centres unmarked) [CP-0415] (HELM PEPTIDE1{[dR].R.P.[Hyp].G.F.C.[dF].L.R}|PEPTIDE2{D.Y.[dW].V.C.[dW].R.[am]}|CHEM1{[O=C1CC([*:1])C(=O)N1CCCCCCN1C(=O)CC([*:2])C1=O]}$PEPTIDE1,CHEM1,7:R3-1:R1|PEPTIDE2,CHEM1,5:R3-1:R2$$$V2.0; N-terminus assumed)
IC50 [5]: 6310 nM | Kb [4]: 15.8 nM

CC(C)C[C@H](NC(=O)[C@@H](Cc1ccccc1)NC(=O)[C@H](CSC1CC(=O)N(CCCCCCN2C(=O)CC(SC[C@H](NC(=O)[C@@H](Cc3c[nH]c4ccccc34)NC(=O)[C@@H](Cc3c[nH]c4ccccc34)NC(=O)[C@@H](NC(=O)[C@@H](Cc3c[nH]c4ccccc34)NC(=O)[C@H](Cc3ccc(O)cc3)NC(=O)[C@@H](N)CC(=O)O)C(C)C)C(N)=O)C2=O)C1=O)NC(=O)[C@H](Cc1ccccc1)NC(=O)CNC(=O)[C@@H]1C[C@@H](O)CN1C(=O)[C@@H]1CCCN1C(=O)[C@H](CCCNC(=N)N)NC(=O)[C@H](N)CCCNC(=N)N)C(=O)N[C@@H](CCCNC(=N)N)C(=O)O (some centres unmarked) [CP-0417] (HELM PEPTIDE1{[dR].R.P.[Hyp].G.F.C.[dF].L.R}|PEPTIDE2{D.Y.[dW].V.[dW].[dW].C.[am]}|CHEM1{[O=C1CC([*:1])C(=O)N1CCCCCCN1C(=O)CC([*:2])C1=O]}$PEPTIDE1,CHEM1,7:R3-1:R1|PEPTIDE2,CHEM1,7:R3-1:R2$$$V2.0)
IC50 [5]: 2510 nM | Kb [4]: 10 nM
